Among the data in patent publication US12479847B2 (DANA-FARBER CANCER INSTITUTE, INC., priority 2019, dated 2025) are remaining binding values, retold here.

Assay in all cases: KINOMEscan (ScanMAX) kinase profiling
Assay type in all cases: binding

The target in assay [1] is T1, panel of 468 kinases (Homo sapiens, UniProt O60331).
T1 construct: purchased KINOMEscan (ScanMAX) service
As to conditions: PIP5K1C; 1 μM; read-out: % control.

In assay [2] the target is T2, panel of 468 kinases (Homo sapiens, UniProt P07949, M918T).
T2 construct: purchased KINOMEscan (ScanMAX) service
The conditions noted are these: RET(M918T); 1 μM; read-out: % control.

In assay [3] the target is T3, panel of 468 kinases (Homo sapiens, UniProt P09769).
T3 construct: purchased KINOMEscan (ScanMAX) service
The conditions noted are these: FGR; 1 μM; read-out: % control.

The target in assay [4] is T4, panel of 468 kinases (Homo sapiens, UniProt P10721, D816V).
T4 construct: purchased KINOMEscan (ScanMAX) service
The conditions noted are these: KIT(D816V); 1 μM; read-out: % control.

Assay [5] deals with T5, panel of 468 kinases (Homo sapiens, UniProt P10721, T670I/V559D).
T5 construct: purchased KINOMEscan (ScanMAX) service
As to conditions: KIT(V559D,T670I); 1 μM; read-out: % control.

The target in assay [6] is T6, panel of 468 kinases (Homo sapiens, UniProt P17948).
T6 construct: purchased KINOMEscan (ScanMAX) service
The conditions noted are these: FLT1; 1 μM; read-out: % control.

Assay [7] concerns the target T7, panel of 468 kinases (Homo sapiens, UniProt P22694).
T7 construct: purchased KINOMEscan (ScanMAX) service
As to conditions: PKAC-beta; 1 μM; read-out: % control.

The target in assay [8] is T8, panel of 468 kinases (Homo sapiens, UniProt P49840).
T8 construct: purchased KINOMEscan (ScanMAX) service
The conditions noted are these: GSK3A; 1 μM; read-out: % control.

For assay [9], the target named is T9, panel of 468 kinases (Homo sapiens, UniProt P57059).
T9 construct: purchased KINOMEscan (ScanMAX) service
The conditions noted are these: SIK; 1 μM; read-out: % control.

Assay [10] has as its target T10, panel of 468 kinases (Homo sapiens, UniProt Q12851).
T10 construct: purchased KINOMEscan (ScanMAX) service
T10 sequence (Q12851 1-820): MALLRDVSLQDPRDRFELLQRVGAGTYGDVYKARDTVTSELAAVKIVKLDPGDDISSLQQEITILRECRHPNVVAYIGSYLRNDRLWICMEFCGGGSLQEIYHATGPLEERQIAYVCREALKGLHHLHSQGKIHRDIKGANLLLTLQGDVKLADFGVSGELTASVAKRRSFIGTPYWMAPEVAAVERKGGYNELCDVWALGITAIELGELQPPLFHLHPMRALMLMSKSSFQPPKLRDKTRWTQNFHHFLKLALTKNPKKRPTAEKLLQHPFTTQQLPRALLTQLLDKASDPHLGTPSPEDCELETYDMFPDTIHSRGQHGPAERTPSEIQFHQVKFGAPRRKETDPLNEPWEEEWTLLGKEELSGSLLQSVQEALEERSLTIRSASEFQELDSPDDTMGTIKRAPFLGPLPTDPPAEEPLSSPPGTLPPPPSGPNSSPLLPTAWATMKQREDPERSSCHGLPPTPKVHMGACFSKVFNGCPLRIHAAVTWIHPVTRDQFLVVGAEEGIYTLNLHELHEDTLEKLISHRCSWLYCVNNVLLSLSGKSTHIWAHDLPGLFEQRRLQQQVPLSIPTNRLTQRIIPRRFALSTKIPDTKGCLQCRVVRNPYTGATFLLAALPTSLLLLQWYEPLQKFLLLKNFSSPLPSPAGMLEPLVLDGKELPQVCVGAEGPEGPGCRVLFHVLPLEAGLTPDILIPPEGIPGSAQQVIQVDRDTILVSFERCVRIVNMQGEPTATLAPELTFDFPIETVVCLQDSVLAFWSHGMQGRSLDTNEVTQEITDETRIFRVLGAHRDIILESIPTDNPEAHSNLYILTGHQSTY
The conditions noted are these: MAP4K2; 1 μM; read-out: % control.

Assay [11] concerns the target T11, panel of 468 kinases (Homo sapiens, UniProt Q13237).
T11 construct: purchased KINOMEscan (ScanMAX) service
T11 sequence (Q13237 1-762): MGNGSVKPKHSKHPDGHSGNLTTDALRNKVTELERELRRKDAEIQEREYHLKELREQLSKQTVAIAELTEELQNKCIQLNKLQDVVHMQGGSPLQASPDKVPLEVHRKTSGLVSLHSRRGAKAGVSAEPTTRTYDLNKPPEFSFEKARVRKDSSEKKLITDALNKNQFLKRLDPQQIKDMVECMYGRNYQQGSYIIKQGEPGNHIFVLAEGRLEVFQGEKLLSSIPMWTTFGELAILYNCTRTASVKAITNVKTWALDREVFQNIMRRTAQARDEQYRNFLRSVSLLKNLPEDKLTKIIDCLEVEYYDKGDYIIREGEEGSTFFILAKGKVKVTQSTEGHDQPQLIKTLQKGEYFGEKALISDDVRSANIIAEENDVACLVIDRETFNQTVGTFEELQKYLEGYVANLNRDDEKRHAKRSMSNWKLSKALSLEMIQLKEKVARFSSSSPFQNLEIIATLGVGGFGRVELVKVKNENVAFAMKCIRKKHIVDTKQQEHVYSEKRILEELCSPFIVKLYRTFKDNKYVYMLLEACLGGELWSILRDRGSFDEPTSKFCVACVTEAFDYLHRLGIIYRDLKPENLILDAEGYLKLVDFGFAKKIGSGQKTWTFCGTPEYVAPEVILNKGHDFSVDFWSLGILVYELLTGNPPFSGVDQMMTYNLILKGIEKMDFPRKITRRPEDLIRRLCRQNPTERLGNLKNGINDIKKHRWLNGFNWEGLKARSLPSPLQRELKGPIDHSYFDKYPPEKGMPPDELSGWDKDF
The conditions noted are these: PRKG2; 1 μM; read-out: % control.

Assay [12] concerns the target T12, panel of 468 kinases (Homo sapiens, UniProt Q15303).
T12 construct: purchased KINOMEscan (ScanMAX) service
The conditions noted are these: ERBB4; 1 μM; read-out: % control.

The target of assay [13] is T13, panel of 468 kinases (Homo sapiens, UniProt Q6P2M8).
T13 construct: purchased KINOMEscan (ScanMAX) service
The conditions noted are these: CAMK1B; 1 μM; read-out: % control.

SMILES strings stand for the structures.

T6 sequence (P17948 27-1338): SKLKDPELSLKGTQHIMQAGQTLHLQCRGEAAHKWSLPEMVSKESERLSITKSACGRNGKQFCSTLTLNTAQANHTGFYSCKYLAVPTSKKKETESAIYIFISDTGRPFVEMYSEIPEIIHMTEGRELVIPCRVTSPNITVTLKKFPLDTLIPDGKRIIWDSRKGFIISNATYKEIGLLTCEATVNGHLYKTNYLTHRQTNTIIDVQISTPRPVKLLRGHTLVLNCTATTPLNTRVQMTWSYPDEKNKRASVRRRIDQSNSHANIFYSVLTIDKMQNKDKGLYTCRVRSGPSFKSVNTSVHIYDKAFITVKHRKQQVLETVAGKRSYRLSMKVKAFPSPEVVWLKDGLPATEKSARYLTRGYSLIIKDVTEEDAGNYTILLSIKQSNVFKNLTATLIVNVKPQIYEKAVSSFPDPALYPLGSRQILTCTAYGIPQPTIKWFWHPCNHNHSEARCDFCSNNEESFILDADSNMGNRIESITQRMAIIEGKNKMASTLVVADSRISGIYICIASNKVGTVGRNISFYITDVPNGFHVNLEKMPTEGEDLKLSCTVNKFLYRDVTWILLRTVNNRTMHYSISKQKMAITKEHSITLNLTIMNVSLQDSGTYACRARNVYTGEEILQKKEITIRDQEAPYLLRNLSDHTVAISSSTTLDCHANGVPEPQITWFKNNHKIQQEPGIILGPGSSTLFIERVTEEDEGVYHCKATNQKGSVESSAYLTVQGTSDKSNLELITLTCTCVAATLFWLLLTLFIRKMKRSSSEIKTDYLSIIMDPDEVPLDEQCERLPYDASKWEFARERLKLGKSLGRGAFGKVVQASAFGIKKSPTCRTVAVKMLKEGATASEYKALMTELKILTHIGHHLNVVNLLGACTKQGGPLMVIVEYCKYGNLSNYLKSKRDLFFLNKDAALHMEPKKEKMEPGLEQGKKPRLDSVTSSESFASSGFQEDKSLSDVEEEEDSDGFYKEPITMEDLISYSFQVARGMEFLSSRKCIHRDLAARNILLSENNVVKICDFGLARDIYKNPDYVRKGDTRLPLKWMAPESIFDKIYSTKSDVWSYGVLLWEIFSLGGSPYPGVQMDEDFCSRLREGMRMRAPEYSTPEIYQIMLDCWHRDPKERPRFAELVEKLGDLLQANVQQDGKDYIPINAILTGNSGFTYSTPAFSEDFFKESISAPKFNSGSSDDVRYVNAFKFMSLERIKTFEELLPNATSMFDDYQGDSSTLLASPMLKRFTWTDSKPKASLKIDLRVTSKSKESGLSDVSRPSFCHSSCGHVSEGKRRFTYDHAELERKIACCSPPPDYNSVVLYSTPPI
T5 sequence (P10721 26-976 V559D/T670I): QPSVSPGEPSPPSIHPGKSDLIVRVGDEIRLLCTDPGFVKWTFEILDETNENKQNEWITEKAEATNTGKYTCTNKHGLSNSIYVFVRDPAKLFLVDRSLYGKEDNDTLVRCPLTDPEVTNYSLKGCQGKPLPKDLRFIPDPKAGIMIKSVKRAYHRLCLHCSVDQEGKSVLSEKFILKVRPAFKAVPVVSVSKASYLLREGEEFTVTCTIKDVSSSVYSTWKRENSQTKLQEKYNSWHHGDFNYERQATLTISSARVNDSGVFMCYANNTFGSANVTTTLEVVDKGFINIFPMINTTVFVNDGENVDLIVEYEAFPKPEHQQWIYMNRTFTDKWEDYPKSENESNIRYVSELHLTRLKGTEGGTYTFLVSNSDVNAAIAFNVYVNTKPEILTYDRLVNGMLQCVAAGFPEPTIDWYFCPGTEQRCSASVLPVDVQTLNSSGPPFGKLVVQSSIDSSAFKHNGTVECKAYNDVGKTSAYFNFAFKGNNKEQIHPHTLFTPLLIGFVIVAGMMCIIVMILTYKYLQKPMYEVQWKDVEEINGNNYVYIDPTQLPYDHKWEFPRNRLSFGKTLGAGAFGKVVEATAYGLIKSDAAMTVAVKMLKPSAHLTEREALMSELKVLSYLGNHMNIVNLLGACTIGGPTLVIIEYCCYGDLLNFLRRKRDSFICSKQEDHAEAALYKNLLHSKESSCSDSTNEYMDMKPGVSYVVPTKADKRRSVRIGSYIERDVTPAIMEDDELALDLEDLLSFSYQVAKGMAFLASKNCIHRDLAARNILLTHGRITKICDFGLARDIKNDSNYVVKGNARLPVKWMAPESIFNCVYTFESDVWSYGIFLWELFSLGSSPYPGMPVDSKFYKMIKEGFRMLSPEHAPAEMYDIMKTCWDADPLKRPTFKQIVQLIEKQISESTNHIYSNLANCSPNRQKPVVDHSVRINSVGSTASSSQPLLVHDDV
T12 sequence (Q15303 26-1308): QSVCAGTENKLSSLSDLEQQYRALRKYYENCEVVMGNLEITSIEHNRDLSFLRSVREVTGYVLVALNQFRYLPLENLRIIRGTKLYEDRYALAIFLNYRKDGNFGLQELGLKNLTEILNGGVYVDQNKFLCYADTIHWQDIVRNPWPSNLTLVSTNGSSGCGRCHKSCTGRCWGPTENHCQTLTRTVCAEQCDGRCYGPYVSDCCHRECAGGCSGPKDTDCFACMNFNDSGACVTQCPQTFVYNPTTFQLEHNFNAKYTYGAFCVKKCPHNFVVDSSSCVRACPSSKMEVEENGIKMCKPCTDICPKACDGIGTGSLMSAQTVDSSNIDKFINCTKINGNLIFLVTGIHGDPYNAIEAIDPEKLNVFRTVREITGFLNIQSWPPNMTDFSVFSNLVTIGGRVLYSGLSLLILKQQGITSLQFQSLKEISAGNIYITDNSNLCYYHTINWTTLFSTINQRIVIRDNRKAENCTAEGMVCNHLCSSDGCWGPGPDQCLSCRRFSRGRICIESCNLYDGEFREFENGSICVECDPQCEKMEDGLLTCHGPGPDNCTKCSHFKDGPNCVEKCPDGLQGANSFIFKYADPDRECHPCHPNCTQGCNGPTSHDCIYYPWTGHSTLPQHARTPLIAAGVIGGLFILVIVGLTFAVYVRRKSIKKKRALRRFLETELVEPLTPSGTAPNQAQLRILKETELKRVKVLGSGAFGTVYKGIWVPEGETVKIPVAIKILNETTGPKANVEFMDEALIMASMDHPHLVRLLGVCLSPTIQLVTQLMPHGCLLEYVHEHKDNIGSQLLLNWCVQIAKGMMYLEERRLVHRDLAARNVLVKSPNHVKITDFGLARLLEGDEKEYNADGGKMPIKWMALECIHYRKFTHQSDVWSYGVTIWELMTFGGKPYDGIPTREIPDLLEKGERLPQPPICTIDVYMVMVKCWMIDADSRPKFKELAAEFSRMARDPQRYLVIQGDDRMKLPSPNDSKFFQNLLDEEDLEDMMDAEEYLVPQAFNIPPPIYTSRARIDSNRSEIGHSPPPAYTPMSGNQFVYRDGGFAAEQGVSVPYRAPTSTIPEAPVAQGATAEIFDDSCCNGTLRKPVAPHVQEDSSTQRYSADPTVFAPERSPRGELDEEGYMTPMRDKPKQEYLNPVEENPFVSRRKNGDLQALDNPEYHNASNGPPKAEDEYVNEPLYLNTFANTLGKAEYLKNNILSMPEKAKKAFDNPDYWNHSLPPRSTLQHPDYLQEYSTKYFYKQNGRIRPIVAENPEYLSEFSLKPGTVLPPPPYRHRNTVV
T13 sequence (Q6P2M8 whole entry): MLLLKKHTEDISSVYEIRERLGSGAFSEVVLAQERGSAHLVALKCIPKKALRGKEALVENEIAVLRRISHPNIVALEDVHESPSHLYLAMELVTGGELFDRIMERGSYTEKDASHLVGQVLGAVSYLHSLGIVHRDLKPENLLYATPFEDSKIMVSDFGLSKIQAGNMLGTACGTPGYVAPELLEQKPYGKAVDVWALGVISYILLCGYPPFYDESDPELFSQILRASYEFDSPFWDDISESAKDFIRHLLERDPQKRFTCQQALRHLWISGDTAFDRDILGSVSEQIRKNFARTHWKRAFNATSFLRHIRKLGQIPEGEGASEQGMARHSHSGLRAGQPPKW
T8 sequence (P49840 whole entry): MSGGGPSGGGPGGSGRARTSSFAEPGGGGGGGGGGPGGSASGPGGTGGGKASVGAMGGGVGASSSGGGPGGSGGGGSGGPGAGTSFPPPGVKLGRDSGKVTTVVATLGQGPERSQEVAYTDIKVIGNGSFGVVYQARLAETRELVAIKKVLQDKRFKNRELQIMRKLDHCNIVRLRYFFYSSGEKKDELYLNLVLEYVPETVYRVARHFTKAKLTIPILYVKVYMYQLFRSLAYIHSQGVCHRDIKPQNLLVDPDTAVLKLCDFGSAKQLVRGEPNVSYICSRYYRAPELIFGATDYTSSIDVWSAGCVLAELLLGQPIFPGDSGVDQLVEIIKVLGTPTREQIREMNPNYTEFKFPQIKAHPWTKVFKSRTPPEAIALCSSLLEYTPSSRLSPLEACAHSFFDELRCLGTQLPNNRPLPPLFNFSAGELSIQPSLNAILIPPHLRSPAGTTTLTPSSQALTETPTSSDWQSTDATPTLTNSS
T1 sequence (O60331 whole entry): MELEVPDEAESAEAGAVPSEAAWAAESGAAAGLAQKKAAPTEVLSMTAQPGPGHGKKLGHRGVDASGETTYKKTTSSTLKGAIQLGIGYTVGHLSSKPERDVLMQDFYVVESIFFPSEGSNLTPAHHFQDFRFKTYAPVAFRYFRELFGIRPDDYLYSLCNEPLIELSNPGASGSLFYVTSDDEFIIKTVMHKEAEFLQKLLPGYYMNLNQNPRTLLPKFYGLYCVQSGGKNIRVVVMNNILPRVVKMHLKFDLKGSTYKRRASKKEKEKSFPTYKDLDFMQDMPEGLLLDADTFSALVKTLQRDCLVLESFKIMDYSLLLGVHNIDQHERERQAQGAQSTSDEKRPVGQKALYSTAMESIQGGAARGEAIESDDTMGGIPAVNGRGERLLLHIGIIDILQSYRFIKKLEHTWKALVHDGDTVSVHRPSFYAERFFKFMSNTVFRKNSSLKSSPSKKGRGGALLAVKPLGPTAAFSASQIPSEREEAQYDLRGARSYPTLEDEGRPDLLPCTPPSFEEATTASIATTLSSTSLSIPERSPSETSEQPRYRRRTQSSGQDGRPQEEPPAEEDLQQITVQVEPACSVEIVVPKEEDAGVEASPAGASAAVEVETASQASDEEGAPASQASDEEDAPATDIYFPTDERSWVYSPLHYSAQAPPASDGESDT
T4 sequence (P10721 26-976 D816V): as the sequence (P10721 26-976 V559D/T670I) above, with D534V, I645T, D791V counted along it

On to `CNc1nc(Nc2ccc(C(=O)N3CCC(N4CCOCC4)CC3)c3c2OCO3)nc2[nH]cc(Cl)c12` [Compound 75, (7-((5-chloro-4-(methylamino)-7H-pyrrolo[2,3-d]pyrimidin-2-yl)amino)benzo[d][1,3]dioxol-4-yl)(4-morpholinopiperidin-1-yl)methanone], for which the remaining binding at 1 µM at panel of 468 kinases [1] stood at 55%; on panel of 468 kinases [2] it was 90%; on panel of 468 kinases [3], 100%; at panel of 468 kinases [4] it was 98%; on panel of 468 kinases [5] it was 62%; on panel of 468 kinases [6], 73%. Besides, the remaining binding at 1 µM on panel of 468 kinases [7] stood at 100%; on panel of 468 kinases [8], 87%; on panel of 468 kinases [9], 100%; on panel of 468 kinases [10], 6.2%; at panel of 468 kinases [11], 100%; on panel of 468 kinases [12], 90%. For the same compound, the remaining binding at 1 µM on panel of 468 kinases [13] turned out to be 44%.

On to `CNc1nc(Nc2ccc(P3(=O)CCN(C4CCOCC4)CC3)cc2OC)nc2[nH]cc(Cl)c12` [Compound 77, 4-(4-((5-chloro-4-(methylamino)-7H-pyrrolo[2,3-d]pyrimidin-2-yl)amino)-3-methoxyphenyl)-1-(tetrahydro-2H-pyran-4-yl)-1,4-azaphosphinane 4-oxide], for which the remaining binding at 1 µM at panel of 468 kinases [1] stood at 70%; at panel of 468 kinases [2], 94%; at panel of 468 kinases [3], 100%; at panel of 468 kinases [4] it was 100%; at panel of 468 kinases [5], 100%; at panel of 468 kinases [6] it was 100%. Besides, the remaining binding at 1 µM stood at 100% at panel of 468 kinases [7]; 90% at panel of 468 kinases [8]; 100% at panel of 468 kinases [9]; 39% at panel of 468 kinases [10]; 100% on panel of 468 kinases [11]; 88% at panel of 468 kinases [12]. Also, the remaining binding at 1 µM on panel of 468 kinases [13] was found to be 54%.

Regarding `CNc1nc(Nc2ccc(S(=O)(=O)N3CCC(N4CCOCC4)CC3)cc2OC)nc2[nH]cc(Cl)c12` [Compound 12, 5-chloro-N2-(2-methoxy-4-((4-morpholinopiperidin-1-yl)sulfonyl)phenyl)-N4-methyl-7H-pyrrolo[2,3-d]pyrimidine-2,4-diamine], the remaining binding at 1 µM on panel of 468 kinases [1] turned out to be 57%; on panel of 468 kinases [2] it was 100%; on panel of 468 kinases [3] it was 100%; at panel of 468 kinases [4], 100%; at panel of 468 kinases [5], 89%; at panel of 468 kinases [6] it was 100%. The remaining binding at 1 µM at panel of 468 kinases [7] was 100%; on panel of 468 kinases [8], 91%; at panel of 468 kinases [9], 100%; on panel of 468 kinases [10], 61%; at panel of 468 kinases [11] it was 100%; on panel of 468 kinases [12], 99%. Besides, at panel of 468 kinases [13], the remaining binding at 1 µM came out at 95%.
